{"source": "patent US20050271676A1", "about": "“Inducing cellular immune responses to human immunodeficiency virus-1 using peptide and nucleic acid compositions” (Epimmune Inc., priority 1993, published 2005)", "key": {"[1]": {"system": "PBMC from patients infected with HIV", "assay": "recall CTL responses, PBMC from HIV-infected patients, 51Cr release", "type": "cell-based, human"}, "[2]": {"system": "HLA-A11/K^b transgenic mice", "assay": "CTL induction in HLA-A11/K^b transgenic mice after peptide immunization", "type": "in vivo", "settings": "protocol as for HLA-A2 transgenic mice"}, "HLA-A*6802": {"biological_target": "HLA-A*6802 (Homo sapiens, UniProt P04439, A269V/D140Y/D185E/E176V/E277Q/E87N/F33Y/G231S/I121R/I166T/I218V/L180W/L300P/L318F/N151K/P208A/P217A/Q86R/R138H/R169H/S129P/T345S/V36M)", "assay": "purified HLA class I binding assay, A*6802"}, "HLA-A*0203": {"biological_target": "HLA-A*0203 (Homo sapiens, UniProt P04439, A173T/D140Y/D185E/D98H/E277Q/G131W/G231S/I119V/I121R/I166T/I218V/L180W/L300P/L318F/N151K/N90K/P208A/P217A/Q86G/Q94H/R138H/R169H/T345S)", "assay": "purified HLA class I binding assay, A*0203"}, "[3]": {"system": "A*0201/K^b transgenic mice", "assay": "CTL induction in A*0201/K^b transgenic mice after peptide immunization", "type": "in vivo"}, "HLA-A*0206": {"biological_target": "HLA-A*0206 (Homo sapiens, UniProt P04439, D140Y/D185E/D98H/E176V/E277Q/F33Y/G131W/G231S/I119V/I121R/I166T/I218V/L300P/L318F/N151K/N90K/P208A/P217A/Q86G/Q94H/R138H/R169H/T345S)", "assay": "purified HLA class I binding assay, A*0206"}}, "data": [{"smiles": "CC(C)[C@H](N)C(=O)N[C@H](C(=O)N[C@H](C(=O)N[C@@H](Cc1ccc(O)cc1)C(=O)N[C@@H](Cc1ccc(O)cc1)C(=O)NCC(=O)N[C@H](C(=O)N1CCC[C@H]1C(=O)N[C@H](C(=O)N[C@@H](Cc1c[nH]c2ccccc12)C(=O)N[C@@H](CCCCN)C(=O)O)C(C)C)C(C)C)C(C)C)[C@@H](C)O", "note": "[Peptide 1069.47]", "values": [{"measurement": "immunogenicity in HIV-infected patients", "setting": "[1]; shown by collaborators", "result": "immunogenic in HIV-infected patients"}, {"measurement": "induction of CTL in HLA-A11 transgenic mice", "setting": "[2]", "result": "induced CTL responses in transgenic mice"}]}, {"smiles": "CC[C@H](C)[C@H](NC(=O)CNC(=O)[C@H](Cc1c[nH]c2ccccc12)NC(=O)[C@@H](NC(=O)[C@@H](NC(=O)[C@H](CC(C)C)NC(=O)[C@H](CCC(N)=O)NC(=O)[C@H](CC(C)C)NC(=O)[C@@H](N)CC(C)C)[C@@H](C)O)C(C)C)C(=O)O", "note": "[Peptide 1261.02]", "values": [{"measurement": "IC50", "setting": "HLA-A*6802", "result": 645, "unit": "nM"}, {"measurement": "IC50", "setting": "HLA-A*0203", "result": 43.5, "unit": "nM"}, {"measurement": "Immunogenicity transgenic", "setting": "[3]; A2 Supermotif peptides, positive/tested transgenic", "result": "1/6"}, {"measurement": "Immunogenicity transgenic", "setting": "[3]; A*0201/K^b transgenic mice, positive/tested", "result": "1/6"}, {"measurement": "Immunogenicity patients", "setting": "[1]; A2-supertype peptides, positive/tested HIV-infected patients", "result": "2/8"}, {"measurement": "Immunogenicity patients", "setting": "[1]; A2 Supermotif peptides, positive/tested patients", "result": "2/8"}, {"measurement": "IC50", "setting": "HLA-A*0206", "result": 24.7, "unit": "nM"}]}]}
